Data on 14 compounds can be found in patent publication US20030073850A1, “4-Imidazole derivatives of benzyl and restricted benzyl sulfonamides, sulfamides, ureas, carbamates, and amides and their use” (priority 1998, published 2003).

pKi: −log10 of the molar value. Where a name gives a salt, the structure may show the parent alone. Read-outs that look alike come from different tables or passages of the source. Some results are limits rather than exact numbers.

Series [1] relates to anesthetized dogs. The experiment in a line: Mean arterial pressure (MAP) in anesthetized dogs. It is filed as in vivo, dog. The following applies: iv dose causing a maximum increase in MAP of 20 mm Hg, anesthetized female Beagle dogs. An excerpt: (§1) Female Beagle dogs (Marshall Farms, North Rose, N.Y.) greater that 2 years of age and weighing between 12 and 15 kg were used in these studies. At least 2 weeks prior to any agonist dosing, dogs were instrumented for the chronic measurement of arterial blood pressure by implanting a telemetry transducer/transmitter (TA11PA-C40, Data Sciences International, St. Paul, Minn.) into a carotid artery.
(§2) On the test day, dogs fasted since the previous afternoon were pre-anesthetized with thiopental sodium 15 mg/kg i.v. (Pentothal™, Abbott) and intubated. Anesthesia was maintained by allowing the dog to spontaneously breathe a mixture of isoflurane (2.5 to 3 volume %) and oxygen delivered by a Narkomed Standard anesthesia system (North American Drager, Telford, Pa.). An Abbocath-T™ i.v. catheter (18-G, Abbott) was inserted into the cephalic vein for the administration of agonists. A telemetry receiver (RA1310, DataSciences) was placed under the head of each dog and was interfaced to a computerized data acquisition system (Modular Instruments Inc.(MI2), Malvern, Pa.) which allowed for the continuous calibrated recording of arterial blood pressure which was electronically filtered to determine its mean value (MAP).
(§3) From the resulting dose response curve, an ED5 value, for the dose causing a maximum increase in IUP of 5 mm Hg, could be estimated. An ED20 value for the dose causing a maximum increase in MAP of 20 mm Hg could also be estimated. A selectivity ratio of MAP ED20 vs. IUP ED, was calculated.

Series [2] concerns anesthetized dogs. Description: Intraurethral pressure (IUP) in anesthetized dogs. It is filed as in vivo, dog. Conditions: iv dose causing a maximum increase in IUP of 5 mm Hg, anesthetized female Beagle dogs; for ED (5 mm Hg): Canis lupus familiaris, read-out: Mean IUP ED5.
Excerpt: as §1, §2
Dogs with chronic telemetry implants anesthetized as described above were placed in dorsal recumbency and a balloon catheter was inserted into the urethral orifice and advanced approximately 15 cm until the tip was well inside the bladder. The balloon was then inflated with 1 ml of room air and the catheter slowly withdrawn until resistance (corresponding to the bladder neck) was evident. The balloon was then deflated and the catheter withdrawn additional 2 cm. The balloon was then reinflated and its catheter port connected to a Gould Statham P23Dd pressure transducer interfaced to a computerized data acquisition system (Modular Instruments, Inc., Malvern, Pa.) for the measurement of the intraurethral pressure. Increasing iv doses of test agonists were administered and the maximum effect of each dose on IUP was recorded. The effect of each dose was allowed to return to baseline before the next dose was given.
as §3

Series [3] addresses T1, α1b (hamster receptor expressed in mouse fibroblasts) (Mesocricetus auratus, UniProt P18841).
T1 construct: expressed in transfected cells; host or cells: mouse fibroblasts
T1 sequence (P18841 1-515): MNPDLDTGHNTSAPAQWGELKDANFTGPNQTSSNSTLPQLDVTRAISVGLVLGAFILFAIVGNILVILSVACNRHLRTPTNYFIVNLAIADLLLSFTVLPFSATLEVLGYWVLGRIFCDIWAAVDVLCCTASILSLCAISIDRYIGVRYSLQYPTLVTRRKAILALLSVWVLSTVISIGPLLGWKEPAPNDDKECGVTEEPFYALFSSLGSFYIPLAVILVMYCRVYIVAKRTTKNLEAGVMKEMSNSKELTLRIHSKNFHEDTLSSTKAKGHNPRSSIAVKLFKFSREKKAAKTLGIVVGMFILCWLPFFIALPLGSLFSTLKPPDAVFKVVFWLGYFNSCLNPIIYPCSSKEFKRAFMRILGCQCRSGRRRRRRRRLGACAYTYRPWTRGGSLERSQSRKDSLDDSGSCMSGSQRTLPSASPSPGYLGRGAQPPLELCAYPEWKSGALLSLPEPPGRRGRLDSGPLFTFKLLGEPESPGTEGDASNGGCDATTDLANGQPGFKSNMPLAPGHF
Description: Radioligand binding, [3H]-prazosin, α1b. The method, then: (§4) For purposes of discussing a, adrenoceptor subtypes, the IUPHAR convention of using lower case letters to define molecular clones and upper case letters to indicate pharmacologically defined adrenoceptors has been followed. Compounds of formula I were evaluated in radioligand binding assays specific for α1A (rat submaxillary gland), α1b (hamster receptor expressed in mouse fibroblasts) and α1d (rat receptor expressed in mouse fibroblasts) using [^3H]-prazosin as the radioligand as described in Knepper, et al. J. Pharm.

In series [4] the target is T2, α1d (rat receptor expressed in mouse fibroblasts) (Rattus norvegicus, UniProt P23944).
T2 construct: expressed in transfected cells; host or cells: mouse fibroblasts
T2 sequence (P23944 1-561): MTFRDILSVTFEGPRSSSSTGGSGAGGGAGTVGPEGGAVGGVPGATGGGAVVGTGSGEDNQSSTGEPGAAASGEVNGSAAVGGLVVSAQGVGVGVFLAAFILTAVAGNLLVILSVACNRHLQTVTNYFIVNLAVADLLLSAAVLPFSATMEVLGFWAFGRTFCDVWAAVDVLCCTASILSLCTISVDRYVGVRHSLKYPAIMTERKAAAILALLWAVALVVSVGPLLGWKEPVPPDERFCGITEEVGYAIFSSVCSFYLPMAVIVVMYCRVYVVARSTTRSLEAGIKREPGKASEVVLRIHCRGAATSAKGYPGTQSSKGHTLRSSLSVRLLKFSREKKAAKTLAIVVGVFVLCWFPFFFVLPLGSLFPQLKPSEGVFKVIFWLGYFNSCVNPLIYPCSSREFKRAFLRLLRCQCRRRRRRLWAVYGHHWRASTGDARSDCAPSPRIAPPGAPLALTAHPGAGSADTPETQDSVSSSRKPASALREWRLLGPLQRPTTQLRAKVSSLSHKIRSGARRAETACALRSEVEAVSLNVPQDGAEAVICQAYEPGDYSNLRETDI
The experiment in a line: Radioligand binding, [3H]-prazosin, α1d. The procedure: as §4

Series [5] has as its target T3, α1A (rat submaxillary gland) (Rattus norvegicus, UniProt P43140).
T3 construct: α1A (rat submaxillary gland); from tissue; host or cells: rat submaxillary gland
T3 sequence (P43140 1-466): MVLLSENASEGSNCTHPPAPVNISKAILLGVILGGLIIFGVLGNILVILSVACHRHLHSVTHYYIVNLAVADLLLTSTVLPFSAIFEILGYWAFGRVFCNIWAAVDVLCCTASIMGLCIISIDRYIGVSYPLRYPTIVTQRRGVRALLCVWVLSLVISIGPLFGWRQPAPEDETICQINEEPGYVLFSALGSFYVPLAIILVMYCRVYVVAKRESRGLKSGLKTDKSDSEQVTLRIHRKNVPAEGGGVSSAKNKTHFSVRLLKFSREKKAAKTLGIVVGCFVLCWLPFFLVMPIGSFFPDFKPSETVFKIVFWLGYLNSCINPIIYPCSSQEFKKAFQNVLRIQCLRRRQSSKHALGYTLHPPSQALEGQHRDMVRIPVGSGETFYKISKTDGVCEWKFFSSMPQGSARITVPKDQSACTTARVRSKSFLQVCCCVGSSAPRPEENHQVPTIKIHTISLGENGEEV
Description: Radioligand binding, [3H]-prazosin, α1A. The method, then: as §4

Where [6] appears, read: hamster receptor expressed in mouse fibroblasts, [3H]-prazosin, read-out: Radioligand Binding Ki α1b (Hamster).
Setting [7] is: rat receptor expressed in mouse fibroblasts, [3H]-prazosin, read-out: Radioligand Binding Ki α1d (Rat).

By pKi is commonly meant the Ki on a negative log10 scale, so that one unit is a factor of ten. As to `CN(c1cccc2c1CCCC2c1c[nH]cn1)S(C)(=O)=O.O=C(O)/C=C\C(=O)O` (centres unmarked) [Example 15, N-[5-(1H-imidazol-4-yl)-5,6,7,8-tetrahydro-1-naphthalenyl]-N-methylmethanesulfonamide, Maleate], the “Mean MAP ED20” value with anesthetized dogs [1] was 225 nmol/kg. Moreover, the ED (5 mm Hg) with anesthetized dogs [2] was 0.0919 µmol/kg. Further, the negative logarithm of the Ki (pKi) in series [3] (setting [6]) is 5.00.
A word on the melting point: it is the temperature, or range, at which the solid turns liquid. Turning to `CC(=O)Nc1cccc2c1CCCC2c1c[nH]cn1.O=C(O)/C=C\C(=O)O` (centres unmarked) [Example 16, N-[5,6,7,8-tetrahydro-5-(1H-imidazol-4-yl)-1-naphthalenyl]acetamide, Maleate], the melting point lay within 159 to 160 °C. Further, the “Mean MAP ED20” value with anesthetized dogs [1] stood at 220 nmol/kg.
`CS(=O)(=O)Nc1cccc2c1OCCC2c1c[nH]cn1.O=C(O)/C=C\C(=O)O` (single isomer, unassigned; (+)) [Example 93, (+) N-[4-(1H-imidazol-4-yl)-3,4-dihydro-2H-chromen-8-yl]methanesulfonamide Maleate] had a melting point of 205 to 208 °C. Also, the ED (5 mm Hg) in the series on anesthetized dogs [2] turned out to be 0.038 µmol/kg.
Compound `CCS(=O)(=O)Nc1cccc2c1CCCC2c1c[nH]cn1.O=C(O)/C=C\C(=O)O` (single isomer, unassigned; (-)) [Example 34, (−)-N-[5-(1H-imidazol-4-yl)-5,6,7,8-tetrahydro-1-naphthalenyl]ethanesulfonamide, Maleate] returned a melting point of 129 to 130 °C. For the same compound, the “Mean MAP ED20” value with anesthetized dogs [1] (Maleate) is above 1000 nmol/kg. Besides, in series [3] (hamster receptor expressed in mouse fibroblasts, [3H]-prazosin, Maleate, read-out: Radioligand Binding Ki α1b (Hamster)), the negative logarithm of the Ki (pKi) is 5.00.
For `C=C(c1cccc(NS(=O)(=O)CC)c1)c1c[nH]cn1.O=C(O)/C=C\C(=O)O` [Example 45, N-{3-[1-(1H-imidazol-4-yl)vinyl]phenyl}ethanesulfonamide, Maleate], the “Mean MAP ED20” value in the series with anesthetized dogs [1] stood at 633 nmol/kg. The ED (5 mm Hg) in the series with anesthetized dogs [2] worked out at 0.273 µmol/kg.
Regarding `O=C(Nc1cccc2c1CCCC2c1c[nH]cn1)C(F)(F)F.O=C(O)/C=C\C(=O)O` (centres unmarked) [Example 17, 2,2,2-trifluoro-N-[5-(1H-imidazol-4-yl)-5,6,7,8-tetrahydro-1-naphthalenyl]acetamide, maleate], in the series on anesthetized dogs [1], the “Mean MAP ED20” value is 216 nmol/kg. Besides, in the series with anesthetized dogs [2], the ED (5 mm Hg) turned out to be 0.188 µmol/kg. In series [3] (setting [6]), the negative-log Ki (pKi) was 5.00.
On to `COc1ccc(NS(C)(=O)=O)c2c1C(c1c[nH]cn1)CCC2` (centres unmarked) [Example 26, N-[5,6,7,8-tetrahydro-(1H-imidazol-4-yl)-4-methoxy-1-naphthalenyl]methanesulfonamide, Maleate], for which the “Mean IUP ED5” value in the series on anesthetized dogs [2] came out at 653 nmol/kg. Further, the pKi in series [4] (setting [7]) and in series [3] (setting [6]) was 5.00 in each case.
In turn, `CS(=O)(=O)Nc1cccc2c1CCC[C@@H]2c1c[nH]cn1` [Example 10, (−)-N-[(5S)-5-(1H-imidazol-4-yl)-5,6,7,8-tetrahydro-1-naphthalenyl]methanesulfonamide] returned a melting point of 118 to 123 °C. In the series on anesthetized dogs [1], the “Mean MAP ED20” value is on record as above 1000 nmol/kg. Besides, the ED (5 mm Hg) in the series with anesthetized dogs [2] was above 1 µmol/kg.
Take `Cl.Cn1cnc(C2CCCc3c(NS(C)(=O)=O)cccc32)c1` (centres unmarked) [Example 14, N-[5,6,7,8-tetrahydro-5-(1-methyl-1H-imidazol-4-yl)-1-naphthalenyl]methanesulfonamide, Hydrochloride]: the melting point was 130 to 135 °C. Besides, the “Mean MAP ED20” value in the series with anesthetized dogs [1] is recorded as above 1000 nmol/kg.
The compound `CN(C)S(=O)(=O)Nc1cccc2c1CCCC2c1c[nH]cn1` (centres unmarked) [Example 111, N′-[5-(1H-imidazol-4-yl)-5,6,7,8-tetrahydro-1-naphthalenvyl]-N,N-dimethylsulfamide] came in with a melting point of 208 to 210 °C. For the same compound, the pKi in series [5] was 6.24. For the same compound, the pKi in series [4] (setting [7]) is 5.80. For the same compound, in series [3] (setting [6]), the pKi was 5.00.
`CCS(=O)(=O)Nc1cccc2c1CCC2c1c[nH]cn1.O=C(O)/C=C\C(=O)O` (centres unmarked) [Example 39, N-[1-(1H-imidazol-4-yl)-2,3-dihydro-1H-inden-4-yl]ethanesulfonamide, Maleate] came in with a melting point of 148 to 149 °C. In the series with anesthetized dogs [1], the “Mean MAP ED20” value was 5.6 nmol/kg.
`CCS(=O)(=O)Nc1cc(C2CCCCC2)cc2c1CCCC2c1c[nH]cn1` (centres unmarked) [Example 101, N-[3-cyclohexyl-5-(1H-imidazol-4-yl)-5,6,7,8-tetrahydro-1-naphthalenyl]ethanesulfonamide] gave a melting point of 207 to 209 °C. Also, in series [5], the pKi is 6.57. In addition, in series [4], the pKi is 6.35. This compound had a pKi in series [3] of 6.05.
As to `CCS(=O)(=O)Nc1cccc2c1CCCC2c1c[nH]cn1.O=C(O)/C=C\C(=O)O` (single isomer, unassigned; (+)) [Example 33, (+)-N-[5-(1H-imidazol-4-yl)-5,6,7,8-tetrahydro-1-naphthalenyl]ethanesulfonamide, Maleate], the “Mean MAP ED20” value in the series on anesthetized dogs [1] (Maleate) was 34.0 nmol/kg.
Consider `CCS(=O)(=O)Nc1cccc2c1SCCC2c1c[nH]cn1.O=C(O)/C=C\C(=O)O` (centres unmarked) [Example 89, N-[4-(1H-imidazol-4-yl)-3,4-dihydro-2H-thiochromen-8-yl]ethanesulfonamide Maleate], for which the melting point fell in the range of 248 to 251 °C. The compound further had a pKi in series [5] of 6.00. Further, in series [4] (setting [7]), the pKi was 5.00. For the same compound, the pKi in series [3] (setting [6]) was 5.00.
